The record followed here is PubChem BioAssay AID687005 (Broad Institute, 2013).

SMILES strings stand for the structures. Results filed as inconclusive are left out. Activity calls are given as the source filed them.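 How the source made its calls: active means Compounds that reduce signal, with fitted half-maximal dose at or under twice the top valid tested dose; inconclusive means Poor fit, or flat curve losing 30 to 70% of signal; inactive means Potency past limit, flat within 30%, or opposite direction.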

The first test can be described thus: viability loss in HEK293T cells – cell-based, ATP luminescence, cherry-pick samples, cytotoxicity control, dose response (AID 687005). The following applies: HEK293T viability, ATP luminescence (CellTiter-Glo), 48 h; at 23.5 µM (top of the series). On the technique in general: ATP-based viability assays read luminescence as a measure of living cells.
Regarding `C[C@@H]1CCCCO[C@@H](CN(C)C(=O)Nc2ccc3c(c2)OCO3)[C@@H](C)CN([C@H](C)CO)C(=O)c2cc(NC(=O)Nc3cccc4ccccc34)ccc2O1`, the activity change, negative = cytotoxicity is -9.79% (inactive).

Consider `COC(=O)C1=C(C)N(Cc2ccc(Cl)cc2)C(=S)NC1c1ccc(Br)cc1` (stereo unspecified), for which the activity change, negative = cytotoxicity is -20.4% (inactive).

Take `COc1ccc(CN(C)C[C@H]2OCCCC[C@@H](C)Oc3ccc(NC(=O)c4ccccc4)cc3C(=O)N([C@H](C)CO)C[C@@H]2C)cc1`: the activity change, negative = cytotoxicity was -10.4% (inactive).

Staying with this test, now noted: HEK293T viability, ATP luminescence (CellTiter-Glo), 48 h; at 26 µM (top of the series).
On to `C[C@H]1CN([C@@H](C)CO)C(=O)c2ccccc2-c2ccccc2CO[C@H]1CN(C)S(=O)(=O)c1cccc(C#N)c1`, for which the activity change, negative = cytotoxicity is -8.25% (inactive).

On to `CCC(C)(C(=O)NC1CCCCC1)N(C(=O)C1CCC(=O)N1)c1ccccc1` (stereo unspecified), for which the activity change, negative = cytotoxicity is 0.147% (inactive).

Regarding `COc1ccc(C2CC(c3cccs3)=NN2C(=O)c2ccc(Br)o2)cc1` (stereo unspecified), the activity change, negative = cytotoxicity is 16.8% (inactive).

For `CNC(=O)C[C@H]1CC[C@H]2[C@@H](COc3ccc(NC(=O)Nc4ccccc4)cc3C(=O)N2C)O1`, the activity change, negative = cytotoxicity was 7.97% (inactive).

As for `CCOC(=O)NC(=S)Nc1ccc(C(C)(C)C)cc1Br`, the activity change, negative = cytotoxicity was 9.89% (inactive).

Take `C[C@@H]1CN([C@H](C)CO)C(=O)c2cc(-c3ccc(F)cc3)cnc2O[C@H]1CN(C)CC1CCCCC1`: the activity change, negative = cytotoxicity was 6.84% (inactive).

Turning to `COC(=O)C1=C(C)N(Cc2ccc(F)cc2)C(=S)NC1c1cccc(OC)c1` (stereo unspecified), the activity change, negative = cytotoxicity was 4.8% (inactive).

Consider `CO[C@@H]1CN(C)C(=O)c2cc(NC(=O)Nc3cccc(F)c3)ccc2OC[C@H](C)N(C)C[C@@H]1C`, for which the activity change, negative = cytotoxicity was -0.56% (inactive).

Consider `COc1ccccc1CNC(=O)C[C@@H]1CC[C@@H]2[C@H](COC[C@@H](O)CN2Cc2ccccc2)O1`, for which the activity change, negative = cytotoxicity was -10.7% (inactive).

Turning to `N#Cc1ccc(C23CC4(C2)[C@H](CN(Cc2ccc(-c5ccccc5)cc2)[C@@H]4c2ccccc2)C3c2ccc(C(F)(F)F)cc2)cc1` (stereo partly specified), the activity change, negative = cytotoxicity was -11.2% (inactive).

Regarding `C[C@@H]1CN([C@H](C)CO)C(=O)c2cc(C3=CCCCC3)cnc2O[C@H]1CN(C)C(=O)Cc1cccnc1`, the activity change, negative = cytotoxicity was -11.9% (inactive).

With `C[C@H](NC(=O)C[C@@H]1CC[C@@H]2[C@H](COC[C@@H](O)CN2C(=O)Nc2cccc(F)c2)O1)c1ccccc1`, the activity change, negative = cytotoxicity is -12.7% (inactive).

On to `COCC(=O)Nc1ccc2c(c1)OC[C@@H](C)N(C(=O)Cc1cccnc1)C[C@H](C)[C@@H](OC)CN(C)C2=O`, for which the activity change, negative = cytotoxicity is -14.6% (inactive).

Regarding `Cc1cccc(C)c1NC(=O)C1(C)CCC(=O)N1CCCn1ccnc1` (stereo unspecified), the activity change, negative = cytotoxicity was -14.5% (inactive).

`CCN(Cc1ccccc1)C(=O)COc1ccccc1`: the activity change, negative = cytotoxicity is -2.56% (inactive).

For the compound `COc1ccc(CNC(=O)C[C@H]2CC[C@H]3[C@@H](COc4ccc(NC(=O)C5CC5)cc4C(=O)N3C)O2)cc1`, the activity change, negative = cytotoxicity is 26% (inactive).

For the compound `O=C(Oc1ccc2c3c(c(=O)oc2c1)CCCC3)c1ccco1`, the activity change, negative = cytotoxicity was -27.5% (inactive).

In the case of `COc1cccc(NC(=O)N2C[C@H](O)COC[C@H]3O[C@@H](CC(=O)NCc4ccccc4F)CC[C@@H]32)c1`, the activity change, negative = cytotoxicity was -23.2% (inactive).

As for `C[C@H]1CN([C@@H](C)CO)C(=O)c2cccc(NS(=O)(=O)c3cn(C)cn3)c2O[C@@H]1CN(C)CC1CCCCC1`, the activity change, negative = cytotoxicity was -5.42% (inactive).

`COC(=O)N(C)C[C@H]1OCc2cn(nn2)CCCC(=O)N([C@@H](C)CO)C[C@@H]1C`: the activity change, negative = cytotoxicity was -1.3% (inactive).

`C[C@@H](O)C#Cc1ccc([C@@H]2[C@H]3CN(CC4CC4)CCCCN3[C@H]2CO)cc1`: the activity change, negative = cytotoxicity is 34.5% (inactive).

On to `COc1ccccc1NC(=O)N[C@H]1CC[C@@H](CCn2cc(-c3ccccc3OC)nn2)O[C@@H]1CO`, for which the activity change, negative = cytotoxicity is -9.57% (inactive).

Take `C[C@@H]1CCCCO[C@H](CN(C)C(=O)c2ccncc2)[C@H](C)CN([C@H](C)CO)C(=O)c2cc(NC(=O)CCC(F)(F)F)ccc2O1`: the activity change, negative = cytotoxicity was -23.2% (inactive).

Take `C[C@H](NC(=O)C[C@H]1CC[C@@H](NC(=O)Cc2ccccn2)[C@@H](CO)O1)c1ccccc1`: the activity change, negative = cytotoxicity is 25.6% (inactive).

As to `C[C@H](CO)N1C[C@H](C)[C@@H](CN(C)Cc2ccncc2)OCCCC[C@H](C)Oc2ccc(NC(=O)NC3CCCCC3)cc2C1=O`, the activity change, negative = cytotoxicity was -0.008% (inactive).

As for `CCNC(=O)Nc1ccc2c(c1)C(=O)N(C)[C@H]1CC[C@H](CC(=O)N[C@@H](C)c3ccccc3)O[C@H]1CO2`, the activity change, negative = cytotoxicity is 75.7% (inactive).

As to `CCOC(=O)CSc1ncnc2c1cnn2-c1ccc(Cl)cc1`, the activity change, negative = cytotoxicity was 0.015% (inactive).

Take `Cc1noc(C)c1NC(=O)N(C)C[C@@H]1Oc2ccc(NC(=O)C3CC3)cc2CC(=O)N([C@H](C)CO)C[C@@H]1C`: the activity change, negative = cytotoxicity is 30.7% (inactive).

`CNC(=O)C[C@@H]1CC[C@@H]2[C@H](COC[C@H](O)CN2S(=O)(=O)c2cccc(Cl)c2)O1`: the activity change, negative = cytotoxicity was 3.1% (inactive).

`COC(=O)C1=C(C)N(Cc2ccccc2)C(=S)NC1c1ccc(Cl)cc1` (stereo unspecified): the activity change, negative = cytotoxicity was -9.7% (inactive).

For `C[C@H]1CN([C@@H](C)CO)C(=O)Cc2cc(NC(=O)Nc3ccccc3)ccc2O[C@H]1CN(C)C(=O)Nc1ccc2c(c1)OCO2`, the activity change, negative = cytotoxicity is -2.2% (inactive).

Take `O=C1CCC(C(=O)Nc2ccc([N+](=O)[O-])cc2)N1` (stereo unspecified): the activity change, negative = cytotoxicity was -9.02% (inactive).

`O=C(NC[C@H]1[C@@H](c2ccccc2)[C@@H](CO)N1C(=O)C1CCC1)NC1CCCC1`: the activity change, negative = cytotoxicity was -38.9% (inactive).

For the compound `CCNC(=O)COc1cccc(C(=O)NCc2ccccc2)c1`, the activity change, negative = cytotoxicity is -54% (inactive).

For `C[C@@H]1CN([C@@H](C)CO)C(=O)Cc2cc(NC(=O)Nc3cccc4ccccc34)ccc2O[C@@H]1CN(C)Cc1ccc(C(=O)O)cc1`, the activity change, negative = cytotoxicity was 30.4% (inactive).

`NC(=O)NCC#Cc1ccc2c(c1)[C@]1(C(=O)N2)[C@H](C(N)=O)[C@H]2C(=O)O[C@H](c3ccccc3)[C@H](c3ccccc3)N2[C@@H]1c1ccccc1OCCO`: the activity change, negative = cytotoxicity is -5.26% (inactive).

`CNC[C@H]1Oc2ccc(NC(=O)Cc3cn(C)c4ccccc34)cc2CC(=O)N([C@@H](C)CO)C[C@H]1C`: the activity change, negative = cytotoxicity was 27% (inactive).

Take `Cc1cccc(OCC(=O)NCc2ccccc2)c1`: the activity change, negative = cytotoxicity is -36.8% (inactive).

Regarding `CC(C)CC#Cc1cnc2c(c1)C(=O)N([C@H](C)CO)C[C@H](C)[C@@H](CN(C)Cc1cccc(F)c1)O2`, the activity change, negative = cytotoxicity is -9.35% (inactive).

On to `C[C@H](CO)N1C[C@H](C)[C@H](CN(C)CC2CCCCC2)Oc2c(NS(C)(=O)=O)cccc2C1=O`, for which the activity change, negative = cytotoxicity is 32.2% (inactive).

In the case of `COc1ccccc1C#Cc1ccc2c(c1)O[C@H](CN(C)C(C)=O)[C@H](C)CN([C@@H](C)CO)S2(=O)=O`, the activity change, negative = cytotoxicity was -7.15% (inactive).

`O=C(Nc1cccc(F)c1)N[C@H]1CC[C@@H](CCNS(=O)(=O)c2cccc(Cl)c2)O[C@@H]1CO`: the activity change, negative = cytotoxicity was -36.3% (inactive).

Turning to `O=C(NC1CCCC1)N1CCCCN2[C@H](CO)[C@H](c3ccc(-c4cncnc4)cc3)[C@@H]2C1`, the activity change, negative = cytotoxicity was -34.7% (inactive).

Turning to `COc1ccc(NC(=O)Nc2ccc3c(c2)C(=O)N([C@H](C)CO)C[C@@H](C)[C@H](CN(C)S(=O)(=O)c2ccc(Cl)cc2)OCCCC[C@@H](C)O3)cc1`, the activity change, negative = cytotoxicity was -9.56% (inactive).

On to `Cc1ccc(C(=O)NC(=S)Nc2ccccc2N2CCCC2)cc1[N+](=O)[O-]`, for which the activity change, negative = cytotoxicity is -8.33% (inactive).

With `O=C(NC1CCCCC1)N[C@H]1C=C[C@@H](CC(=O)N2CCOCC2)O[C@@H]1CO`, the activity change, negative = cytotoxicity was 17.4% (inactive).

On to `CO[C@H]1CN(C)C(=O)c2ccc(NC(=O)NC(C)C)cc2OC[C@@H](C)NC[C@H]1C`, for which the activity change, negative = cytotoxicity was -16.2% (inactive).

Regarding `Cc1cc(C)c2nc(N3CCN(C(=O)c4cccs4)CC3)sc2c1`, the activity change, negative = cytotoxicity is -19.8% (inactive).

Consider `CNC[C@H]1Oc2cc(Br)ccc2S(=O)(=O)N([C@H](C)CO)C[C@H]1C`, for which the activity change, negative = cytotoxicity was 37.7% (inactive).

For the compound `COC(=O)C1=C(C)N(Cc2ccc(Cl)cc2)C(=S)NC1c1ccc(F)cc1` (stereo unspecified), the activity change, negative = cytotoxicity is -32.8% (inactive).

Consider `C[C@@H]1CN([C@@H](C)CO)C(=O)c2cc(/C=C/c3ccccc3)cnc2O[C@@H]1CN(C)S(C)(=O)=O`, for which the activity change, negative = cytotoxicity was 10.2% (inactive).

Turning to `CCCC(=O)Nc1ccc2c(c1)OC[C@@H](C)N(Cc1cncnc1)C[C@@H](C)[C@@H](OC)CN(C)C2=O`, the activity change, negative = cytotoxicity was 49.4% (inactive).

For the compound `Cc1cc(C)c(NC(=O)C2CCCCN2C)c(C)c1` (stereo unspecified), the activity change, negative = cytotoxicity was 10.1% (inactive).

As for `O=C(NCCN1CCCCC1)[C@@H]1N[C@@H]2c3ccc(-c4ccncc4)c(=O)n3C[C@@H]2[C@H]1CO`, the activity change, negative = cytotoxicity is -26.2% (inactive).

With `CNC[C@@H]1Oc2c(NS(=O)(=O)c3cccs3)cccc2C(=O)N([C@@H](C)CO)C[C@H]1C`, the activity change, negative = cytotoxicity is 28.1% (inactive).

`CCC(=O)N1[C@H](C(=O)Nc2ccccc2)[C@@H](CO)[C@@H]2Cn3c(ccc(-c4ccncc4)c3=O)[C@@H]21`: the activity change, negative = cytotoxicity was 24.7% (inactive).

`CC(C)CC#Cc1ccc2c(c1)O[C@@H](CN(C)C(=O)C1CCC1)[C@@H](C)CN([C@H](C)CO)S2(=O)=O`: the activity change, negative = cytotoxicity is 1.96% (inactive).

Still in this test, the particulars now being: HEK293T viability, ATP luminescence (CellTiter-Glo), 48 h; at 42 µM (top of the series).
For the compound `CCCC(=O)N1CCC1(C)C(=O)Nc1cc(C)ccc1C` (stereo unspecified), the activity change, negative = cytotoxicity was -18.3% (inactive).
